Results: the CheMixHub viscosity set

Test: xn = mol fraction of the nth substance listed

CCCCCCCCCCCCO + CCCCCCCCCO
viscosity [mPa·s], 101.8 kPa
Conditions	x2 = 0.1246	x2 = 0.3557	x2 = 0.5641	x2 = 0.7516	x2 = 0.9218
298.15 K	15.91	14.07	12.49	11.2	10.02
308.15 K	10.86	9.686	8.677	7.814	7.056
318.15 K	7.599	6.831	6.182	5.591	5.091

NCCO.O=CO + CC(C)(N)CO
viscosity [mPa·s], 100 kPa
Conditions	x1 = 0.1475	x1 = 0.2287	x1 = 0.3157	x1 = 0.409	x1 = 0.5093	x1 = 0.6175	x1 = 0.7346
298.15 K	170.6	165.1	148.3	126.5	107.4	84.75	64.21
303.15 K	118.8	113	103.2	90.68	78.55	62.99	49.24
308.15 K	82.33	79.18	74.33	66.23	58.35	47.99	38.25
313.15 K	58.68	57.28	54.44	49.47	44.41	37.11	30.16
318.15 K	42.89	42.1	40.82	37.69	34.31	29.35	24.25
323.15 K	31.84	31.65	31.24	29.32	27.04	23.55	19.78

Cc1ccc(C)cc1 + Cc1ccccc1
Conditions	viscosity [mPa·s]
293.15 K, 101.33 kPa, x2 = 0.1516	0.636
293.15 K, 101.33 kPa, x2 = 0.3137	0.624
293.15 K, 101.33 kPa, x2 = 0.6003	0.6
293.15 K, 101.33 kPa, x2 = 0.8519	0.588
298.15 K, 101 kPa, x1 = 0.1	0.5595
298.15 K, 101 kPa, x1 = 0.2	0.565
298.15 K, 101 kPa, x1 = 0.3	0.5703
298.15 K, 101 kPa, x1 = 0.4	0.5756
298.15 K, 101 kPa, x1 = 0.5	0.5807
298.15 K, 101 kPa, x1 = 0.6	0.5857
298.15 K, 101 kPa, x1 = 0.7	0.5907
298.15 K, 101 kPa, x1 = 0.8	0.5955
298.15 K, 101 kPa, x1 = 0.9	0.6001
303.15 K, 101.33 kPa, x2 = 0.1516	0.56
303.15 K, 101.33 kPa, x2 = 0.3137	0.547
303.15 K, 101.33 kPa, x2 = 0.6003	0.532
303.15 K, 101.33 kPa, x2 = 0.8519	0.526
313.15 K, 101.33 kPa, x2 = 0.1516	0.509
313.15 K, 101.33 kPa, x2 = 0.3137	0.5
313.15 K, 101.33 kPa, x2 = 0.6003	0.491
313.15 K, 101.33 kPa, x2 = 0.8519	0.47
323.15 K, 101.33 kPa, x2 = 0.1516	0.459
323.15 K, 101.33 kPa, x2 = 0.3137	0.45
323.15 K, 101.33 kPa, x2 = 0.6003	0.437
323.15 K, 101.33 kPa, x2 = 0.8519	0.423

CCCCCCCCCCCCCCCCCC(=O)OC + C1CCCCC1
viscosity [mPa·s], 101 kPa
Conditions	x1 = 0.05	x1 = 0.1	x1 = 0.15	x1 = 0.2	x1 = 0.25	x1 = 0.3
298 K	1.22	1.46	1.73	2.03	2.33	–
303 K	1.14	1.35	1.58	1.86	2.12	2.45
308 K	1.06	1.25	1.46	1.71	1.95	2.2
313 K	0.99	1.16	1.34	1.58	1.78	2.02

Cc1ccc(C)cc1 + CC#N
308.15 K, 101 kPa
Conditions	viscosity [mPa·s]
x1 = 0.1008	0.3403
x1 = 0.2001	0.3636
x1 = 0.2981	0.3915
x1 = 0.3964	0.4147
x1 = 0.4985	0.4387
x1 = 0.5923	0.4603
x1 = 0.6937	0.4799
x1 = 0.7907	0.4989
x1 = 0.9051	0.5199

O=Cc1ccccc1 + O=[N+]([O-])c1ccccc1
303.15 K, 101 kPa
Conditions	viscosity [mPa·s]
x1 = 0.3043	1.495
x1 = 0.6049	1.405
x1 = 0.9018	1.295

OCCOCCO + CS(C)=O
308.15 K, 101 kPa
Conditions	viscosity [mPa·s]
x2 = 0.0978	16.69
x2 = 0.1794	15.85
x2 = 0.2569	14.94
x2 = 0.3945	13.49
x2 = 0.4797	12.36
x2 = 0.5804	10.83
x2 = 0.6748	8.995
x2 = 0.7945	6.227
x2 = 0.9146	3.442

Cc1ccc(C)cc1 + CCOC(C)=O
Conditions	viscosity [mPa·s]
298.15 K, 101 kPa, x2 = 0.044	0.601
298.15 K, 101 kPa, x2 = 0.1503	0.572
298.15 K, 101 kPa, x2 = 0.2506	0.547
298.15 K, 101 kPa, x2 = 0.3502	0.525
298.15 K, 101 kPa, x2 = 0.4374	0.507
298.15 K, 101 kPa, x2 = 0.4986	0.496
298.15 K, 101 kPa, x2 = 0.5505	0.487
298.15 K, 101 kPa, x2 = 0.6473	0.472
298.15 K, 101 kPa, x2 = 0.7519	0.457
298.15 K, 101 kPa, x2 = 0.8485	0.444
298.15 K, 101 kPa, x2 = 0.9426	0.434
303.15 K, 101.32 kPa, x2 = 0.0624	0.555
303.15 K, 101.32 kPa, x2 = 0.1828	0.534
303.15 K, 101.32 kPa, x2 = 0.2938	0.516
303.15 K, 101.32 kPa, x2 = 0.4031	0.498
303.15 K, 101.32 kPa, x2 = 0.5056	0.481
303.15 K, 101.32 kPa, x2 = 0.552	0.474
303.15 K, 101.32 kPa, x2 = 0.6041	0.465
303.15 K, 101.32 kPa, x2 = 0.6976	0.45
303.15 K, 101.32 kPa, x2 = 0.7887	0.436
303.15 K, 101.32 kPa, x2 = 0.8757	0.423
303.15 K, 101.32 kPa, x2 = 0.9585	0.411
308.15 K, 101 kPa, x2 = 0.044	0.527
308.15 K, 101 kPa, x2 = 0.1503	0.506
308.15 K, 101 kPa, x2 = 0.2506	0.488
308.15 K, 101 kPa, x2 = 0.3502	0.471
308.15 K, 101 kPa, x2 = 0.4374	0.457
308.15 K, 101 kPa, x2 = 0.4986	0.448
308.15 K, 101 kPa, x2 = 0.5505	0.44
308.15 K, 101 kPa, x2 = 0.6473	0.427
308.15 K, 101 kPa, x2 = 0.7519	0.414
308.15 K, 101 kPa, x2 = 0.8485	0.403
308.15 K, 101 kPa, x2 = 0.9426	0.393
313.15 K, 101.32 kPa, x2 = 0.2063	0.481
313.15 K, 101.32 kPa, x2 = 0.4077	0.45
313.15 K, 101.32 kPa, x2 = 0.5061	0.435
313.15 K, 101.32 kPa, x2 = 0.5991	0.423
313.15 K, 101.32 kPa, x2 = 0.8016	0.395

OCCOCCO + CC(C)=O
298.1 K, 101 kPa
Conditions	viscosity [mPa·s]
x1 = 0.2	0.682
x1 = 0.4	1.669
x1 = 0.5	2.655
x1 = 0.6	4.301
x1 = 0.8	11.1

O=Cc1ccccc1 + ClCCCl
viscosity [mPa·s], 101 kPa
Conditions	x1 = 0.3909	x1 = 0.8163	x1 = 0.8165	x1 = 0.9064
293.15 K	1.085	1.445	–	–
303.15 K	–	–	1.225	1.285

CC(O)C(C)O (configuration not stated) + CN1CCCC1=O
308.15 K, 101 kPa
Conditions	viscosity [mPa·s]
x1 = 0.0282	1.924
x1 = 0.0534	2.003
x1 = 0.1001	2.405
x1 = 0.1968	2.91
x1 = 0.295	3.344
x1 = 0.3939	4.159
x1 = 0.4746	5.033
x1 = 0.5881	7.256
x1 = 0.6924	8.758
x1 = 0.7916	13.58
x1 = 0.8948	23.29
x1 = 0.9431	32.45
x1 = 0.973	39.91

NCCO.O=CO + CCO
viscosity [mPa·s], 101 kPa
Conditions	x2 = 0.6996	x2 = 0.7776	x2 = 0.8461	x2 = 0.9031	x2 = 0.9294	x2 = 0.9544	x2 = 0.9779
293.15 K	12.34	7.77	5.01	3.318	2.76	2.28	1.86
298.15 K	10.54	6.762	4.44	3	2.502	2.064	1.71
303.15 K	9.078	5.97	3.984	2.73	2.268	1.902	1.584

O=Cc1ccccc1 + c1ccccc1
viscosity [mPa·s], 101 kPa
Conditions	x1 = 0.1	x1 = 0.2	x1 = 0.4	x1 = 0.5	x1 = 0.6
298.15 K	0.655	0.714	0.847	0.928	1.012
308.15 K	0.583	0.625	0.742	0.809	0.885
318.15 K	0.509	0.551	0.667	0.711	0.773
323.15 K	0.477	0.517	–	0.665	0.724

NCCO.O=CO + O
viscosity [mPa·s], 101 kPa
Conditions	x1 = 0.0088	x1 = 0.0186	x2 = 0.8561	x2 = 0.8993	x2 = 0.9327	x2 = 0.9591	x2 = 0.9712
293.15 K	1.23	1.29	3.936	2.814	2.172	1.842	1.482
298.15 K	1.08	1.17	3.51	2.52	1.914	1.614	1.35
303.15 K	0.99	1.05	3.12	2.28	1.716	1.386	1.23

Cc1ccc(C)cc1 + COC(=O)OC
298.15 K, 101.3 kPa
Conditions	viscosity [mPa·s]
x2 = 0.1097	0.592
x2 = 0.1824	0.591
x2 = 0.2345	0.59
x2 = 0.2757	0.589
x2 = 0.3294	0.586
x2 = 0.3683	0.586
x2 = 0.5137	0.588
x2 = 0.6046	0.588
x2 = 0.7164	0.59
x2 = 0.8442	0.587

COC(=O)OCC(F)(F)F + O=C1OCCO1
313.15 K, 100 kPa
Conditions	viscosity [mPa·s]
x2 = 0.1011	0.826
x2 = 0.1994	0.92
x2 = 0.3006	1.03
x2 = 0.3997	1.142
x2 = 0.5004	1.264
x2 = 0.5989	1.39
x2 = 0.7023	1.524
x2 = 0.7988	1.652
x2 = 0.9	1.786

CCCCCCCCCCCCO + CCCCCCCO
viscosity [mPa·s], 101.8 kPa
Conditions	x2 = 0.1535	x2 = 0.4063	x2 = 0.6158	x2 = 0.7897	x2 = 0.937
298.15 K	14.93	11.89	9.619	7.876	6.209
308.15 K	10.25	8.286	6.789	5.642	4.516
318.15 K	7.217	5.917	4.913	4.132	3.362

Cc1ccc(C)cc1 + CO
viscosity [mPa·s], 101 kPa
Conditions	x1 = 0.0352	x1 = 0.0758	x1 = 0.1233	x1 = 0.1795	x1 = 0.247	x1 = 0.3298	x1 = 0.4336	x1 = 0.5673	x1 = 0.747
293.15 K	0.6087	0.6353	0.6635	0.6929	0.7227	0.7509	0.7731	0.7803	0.7526
298.15 K	0.5596	0.5732	0.5877	0.6031	0.6191	0.6348	0.6483	0.656	0.6489
308.15 K	0.4893	0.4993	0.5103	0.522	0.5342	0.5465	0.558	0.5669	0.5649
318.15 K	0.4296	0.4369	0.4449	0.4536	0.4628	0.4725	0.4823	0.4899	0.4933
